From publication PMC7038160, “Design, Synthesis, and Evaluation of Acetylcholinesterase and Butyrylcholinesterase Dual-Target Inhibitors against Alzheimer’s Diseases” (Molecules, 2020)
Entries after “also recorded” stand apart in the source; their conditions may differ.

Tests used:
[1] = molecular target: T1, AChE from Electrophorus electricus (eeAChE) (Electrophorus electricus, UniProt O42275); assay: biochemical; format: biochemical; conditions: for SI (selectivity index = AChE IC50/BChE IC50): eeAChE IC50 / eqBChE IC50; for IC50 / AChE IR (inhibitory rate): eeAChE from electric eel; for IC50: mean ± SEM of triplicate independent experiments; for AChE IR (inhibitory rate): compounds under 100 μM
T1 construct: purchased Sigma-Aldrich
T1 sequence (O42275 24-633): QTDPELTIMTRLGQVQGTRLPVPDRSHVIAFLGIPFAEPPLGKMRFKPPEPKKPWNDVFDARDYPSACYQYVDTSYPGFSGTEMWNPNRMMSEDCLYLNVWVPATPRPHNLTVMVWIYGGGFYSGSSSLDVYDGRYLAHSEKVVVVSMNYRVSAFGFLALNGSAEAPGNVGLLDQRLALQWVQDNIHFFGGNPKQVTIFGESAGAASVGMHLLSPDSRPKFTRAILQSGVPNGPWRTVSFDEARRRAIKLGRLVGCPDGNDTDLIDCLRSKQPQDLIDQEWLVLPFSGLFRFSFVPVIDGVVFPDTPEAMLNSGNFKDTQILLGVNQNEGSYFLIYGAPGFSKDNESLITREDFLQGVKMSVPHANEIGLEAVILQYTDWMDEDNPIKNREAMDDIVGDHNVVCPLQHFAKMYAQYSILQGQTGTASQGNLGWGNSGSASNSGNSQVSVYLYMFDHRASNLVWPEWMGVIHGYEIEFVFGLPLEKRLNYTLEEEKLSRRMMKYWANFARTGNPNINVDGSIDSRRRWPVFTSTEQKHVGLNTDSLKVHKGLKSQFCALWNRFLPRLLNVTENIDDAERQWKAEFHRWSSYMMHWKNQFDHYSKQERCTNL
Method: (§1) According to the method described by Ellman, the data were expressed by IC50 values.
(§2) The inhibitory activity of the target compound against AChE (from Electrophorus electricus (eeAChE), Sigma-Aldrich, Munich, Germany) and horse serum BChE (eqBChE, Sigma-Aldrich, Munich, Germany) were measured by Ellman’s method. In 96-well plates, a mixture of phosphate buffer (0.1 M, pH 8.0, […]), 5,5′-dithiobis-2-nitrobenzoic acid (DTNB, 60 μL), acetylcholinesterase or butyrylcholinesterase (20 μL, 5 IU/mL) and different concentrations of the compounds solution (30 μL) was pre-incubated for 5 min and then substrates (acetylthiocholine iodide or butyrylthiocholine iodide, 20 μL) were added.
(§3) The measurement of each concentration for each compound was detected in triplicate. GraphPad Prism 6.0 (GraphPad Software, Inc., La Jolla, CA, USA) was used for data processing. The inhibition curve was fitted by plotting the logarithm of the concentration of the tested compounds with the percentage of enzyme activity (reference to 100%). The (IC50) value was calculated according to the inhibition curve and the data were shown in the layout of mean ± SEM by GraphPad Prism 6.0.

[2] = molecular target: T2, horse serum BChE (eqBChE) (Equus caballus, UniProt P81908); assay: biochemical; format: biochemical; conditions: eqBChE from horse serum; for IC50: mean ± SEM of triplicate independent experiments; for BChE IR (inhibitory rate): compounds under 100 μM
T2 construct: horse serum BChE (eqBChE, Sigma-Aldrich, Munich, Germany); purchased Sigma-Aldrich; host or cells: horse serum
T2 sequence (P81908 whole entry): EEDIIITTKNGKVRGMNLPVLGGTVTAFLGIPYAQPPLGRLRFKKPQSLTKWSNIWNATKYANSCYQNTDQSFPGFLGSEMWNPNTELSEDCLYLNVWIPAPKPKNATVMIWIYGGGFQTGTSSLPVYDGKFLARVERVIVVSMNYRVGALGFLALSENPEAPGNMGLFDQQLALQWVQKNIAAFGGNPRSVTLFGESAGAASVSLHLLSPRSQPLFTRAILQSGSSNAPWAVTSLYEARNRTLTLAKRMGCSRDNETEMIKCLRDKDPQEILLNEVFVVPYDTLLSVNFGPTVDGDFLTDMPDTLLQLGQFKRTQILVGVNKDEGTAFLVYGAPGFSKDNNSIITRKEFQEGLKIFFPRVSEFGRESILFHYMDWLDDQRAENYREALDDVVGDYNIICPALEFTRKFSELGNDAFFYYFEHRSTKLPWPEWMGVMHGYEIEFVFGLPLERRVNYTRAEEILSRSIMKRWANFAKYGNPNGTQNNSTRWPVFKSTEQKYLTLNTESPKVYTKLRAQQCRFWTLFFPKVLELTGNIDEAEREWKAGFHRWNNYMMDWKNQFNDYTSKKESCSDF
Method: as §1, §2, §3

PC12 cells = assay: Cytotoxicity in PC12 cells (MTT assay); format: cell-based; conditions: 10, 20, 30 and 50 μM, 24 h
Method: We focused on the cytotoxicity of the synthetic compounds. The reason for using PC12 is that our compounds act on the central nervous system, so we need to find out whether the compound has a toxic effect on normal nerve cells. Compounds 6b, 6c, 6d, 10s, 8i, and 10v were selected as representative compounds to assess their potential cytotoxic effects.
Pheochromocytoma-derived cell line (PC12 cells) were grown in Dulbecco’s Modified Eagle Medium (DMEM) supplemented with 10% FBS at 37 °C in a humidified atmosphere containing 5% CO2. To carry out the experiment, cells (6 × 10^3 cells/well) were seeded in 96-well plate in complete medium. […]

eqBChE [3] = molecular target: T3, eqBChE (Equus caballus, UniProt P81908); design: method as in earlier work; conditions: lead compound from previous virtual screening; cited from earlier work
T3 construct: horse serum BChE (eqBChE, Sigma-Aldrich, Munich, Germany); purchased Sigma-Aldrich; host or cells: horse serum
T3 sequence (P81908 whole entry): as above

eeAChE = molecular target: T4, eeAChE (Electrophorus electricus, UniProt O42275); assay: Kinetics of AChE inhibition (Lineweaver–Burk plots); format: biochemical, Electrophorus electricus (electric eel); conditions: substrate 90-904 μM
T4 construct: purchased Sigma-Aldrich
T4 sequence (O42275 24-633): as the sequence (O42275 24-633) above
Method: (§4) To determine the kinetic types of AChE and BChE inhibition, compounds 8i and 10s were selected for kinetic studies. In each case, the kinetic types of enzyme inhibition were obtained by the modified Ellman’s method and the Lineweaver–Burk secondary plots. […] According to the result of molecular docking study.
(§5) Kinetic studies were performed in the same manner as the determination of ChEs inhibition, with substrate (ATC/BTC) concentrations of 90, 150, 226, 452 and 904 μM. The concentration of compound 8i was set to 0, 0.25, 0.5, 0.75, 1 μM, and the concentration of compound 10s was set to 1, 2.5, 5, 7.5, 10 μM. The enzymatic reaction was extended to 7 min for eeAChE and eqBChE before the determination of the absorption. The Vmax and Km values of Michaelis-Menten kinetics were calculated by nonlinear regression from the substrate-velocity curves using GraphPad Prism 6.0. Linear regression was used to fit the Lineweaver–Burk plot.

eqBChE [4] = molecular target: T3, eqBChE; assay: Kinetics of BChE inhibition (Lineweaver–Burk plots); format: biochemical; conditions: substrate 90-904 μM
Method: as §4, §5

Row | Compound | SI (selectivity index = AChE IC50/BChE IC50) [1] | IC50 [1] [µM] | IC50 [2] [µM] | AChE IR (inhibitory rate) [1] | BChE IR (inhibitory rate) [2] [%] | further results
1 | O=C(NCC1CCN(Cc2ccccc2)CC1)c1ccc2[nH]ncc2c1 [Compound 6c, N-((1-Benzylpiperidin-4-yl)methyl)-1H-indazole-5-carboxamide] | 0.25 | 9.06 ± 2.57 | 36.6 ± 17.5 | – | – | cytotoxicity compared with Tacrine (PC12 cells): less toxic than Tacrine
2 | Cn1c(=O)n(C)c2cc(S(=O)(=O)NCC3CCN(Cc4ccc(F)cc4)CC3)ccc21 [Compound G801-0274] | – | – | – | – | – | IC50 (eqBChE [3]): 0.03 µM
3 | O=C(CC1CCN(CCc2ccccc2)CC1)Nc1ccc2[nH]cnc2c1 [Compound 16c, N-(1H-Benzo[d]imidazol-5-yl)-2-(1-phenethylpiperidin-4-yl)acetamide] | – | – | – | no inhibitory activity and no | 30.59 | –
4 | Cc1ccc(S(=O)(=O)NCC2CCN(Cc3ccc(C(F)(F)F)cc3)CC2)cc1 [Compound 10v, 4-Methyl-N-((1-(4-(trifluoromethyl)benzyl)piperidin-4-yl)methyl)benzenesulfonamide] | 1.01 | – | 7.14 ± 5.27 | – | – | –
5 | O=C(NCC1CCN(Cc2ccccc2Cl)CC1)c1ccc2[nH]nnc2c1 [Compound 6g, N-((1-(2-Chlorobenzyl)piperidin-4-yl)methyl)-1H-benzo[d][1,2,3]triazole-5-carboxamide] | 0.58 | 29.2 ± 16.4 | 49.9 ± 37.3 | – | – | –
6 | Cc1ccc(S(=O)(=O)NCC2CCN(Cc3ccccc3)CC2)cc1 [Compound 10s, N-((1-Benzylpiperidin-4-yl)methyl)-4-methylbenzenesulfonamide] | 1.03 | 4.24 ± 2.44 | 4.1 ± 3.74 | – | – | kinetic type of AChE inhibition (eeAChE): same inhibition type; kinetic type of BChE inhibition (eqBChE [4]): same inhibition type; cytotoxicity compared with Tacrine (PC12 cells): slightly more toxic than Tacrine
7 | O=C(CC1CCN(CCc2ccccc2)CC1)Nc1ccc2[nH]ccc2c1 [Compound 16a, N-(1H-Indol-5-yl)-2-(1-phenethylpiperidin-4-yl)acetamide] | – | – | – | 8.61% | 23.49 | –
8 | O=C(NCC1CCN(Cc2ccc(C(F)(F)F)cc2)CC1)c1ccc2[nH]cnc2c1 [Compound 6e, N-((1-(4-(Trifluoromethyl)benzyl)piperidin-4-yl)methyl)-1H-benzo[d]imidazole-5-carboxamide] | – | 48.5 ± 36.2 | – | – | 39.88 | –
9 | COc1ccc(CN2CCC(CNC(=O)c3ccc4[nH]cnc4c3)CC2)cc1 [Compound 11d] | – | – | – | 18.81% | – | –
10 | Cc1ccc(S(=O)(=O)NCC2CCN(Cc3ccccc3Cl)CC2)cc1 [Compound 10t, N-((1-(2-Chlorobenzyl)piperidin-4-yl)methyl)-4-methylbenzenesulfonamide] | 2.74 | 5.5 ± 2.56 | 2.01 ± 0.7 | – | – | –
11 | O=C1Cc2cc(C(=O)NCC3CCN(Cc4ccccc4)CC3)ccc2N1 [Compound 8i, N-((1-Benzylpiperidin-4-yl)methyl)-2-Oxoindoline-5-carboxamide] | 1.39 | 0.39 ± 0.04 | 0.28 ± 0.1 | – | – | kinetic type of AChE inhibition (eeAChE): mixed-type inhibition; kinetic type of BChE inhibition (eqBChE [4]): mixed-type inhibition; cytotoxicity compared with Tacrine (PC12 cells): lower than that of Tacrine; also recorded: less toxic than Tacrine; also recorded: lowest toxicity
12 | O=C1Cc2cc(C(=O)NCC3CCN(Cc4ccccc4Cl)CC3)ccc2N1 [Compound 8j, N-((1-(2-Chlorobenzyl)piperidin-4-yl)methyl)-2-Oxoindoline-5-carboxamide] | – | – | – | 14.69% | 22.87 | –
13 | O=C(NCC1CCN(Cc2ccccc2Cl)CC1)c1ccc2[nH]ccc2c1 [Compound 6b, N-((1-(2-Chlorobenzyl)piperidin-4-yl)methyl)-1H-Indole-5-carboxamide] | 1.57 | 15 ± 6.17 | 9.56 ± 4.52 | – | – | –
14 | COc1ccc(CN2CCC(CNS(=O)(=O)c3ccc(C)cc3)CC2)cc1 [Compound 10u, N-((1-(4-Methoxybenzyl)piperidin-4-yl)methyl)-4-methylbenzenesulfonamide] | – | – | – | 11.61% | 18.31 | –
15 | O=C(NCC1CCN(Cc2ccc(C(F)(F)F)cc2)CC1)c1ccc2[nH]nnc2c1 [Compound 6h, N-((1-(4-(Trifluoromethyl)benzyl)piperidin-4-yl)methyl)-1H-benzo[d][1,2,3]triazole-5-carboxamide] | – | 40.2 ± 27.6 | – | – | 30.71 | –
16 | O=C(NCC1CCN(Cc2ccccc2)CC1)c1ccc2[nH]cnc2c1 [Compound 6d, N-((1-Benzylpiperidin-4-yl)methyl)-1H-benzo[d]imidazole-5-carboxamide] | 2.23 | 4.8 ± 0.68 | 2.15 ± 0.63 | – | – | cytotoxicity compared with Tacrine (PC12 cells): less toxic than Tacrine
17 | COc1ccc(CN2CCC(CNC(=O)c3ccc4[nH]ncc4c3)CC2)cc1 [Compound 11b] | – | – | – | 48.57% | – | –
18 | O=C(CC1CCN(CCc2ccccc2Cl)CC1)Nc1ccc2[nH]cnc2c1 [Compound 16d, N-(1H-Benzo[d]imidazol-5-yl)-2-(1-(2-chlorophenethyl)piperidin-4-yl)acetamide] | – | – | – | 8.55% | 38.04 | –
19 | COc1ccc(CN2CCC(CNC(=O)c3ccc4[nH]nnc4c3)CC2)cc1 [Compound 6f, N-((1-(4-Methoxybenzyl)piperidin-4-yl)methyl)-1H-benzo[d][1,2,3]triazole-5-carboxamide] | – | – | – | 43.07% | 49.63 | –
20 | O=C(NCC1CCN(Cc2ccccc2)CC1)c1ccc2[nH]ccc2c1 [Compound 6a, N-((1-Benzylpiperidin-4-yl)methyl)-1H-indole-5-carboxamide] | 1.66 | 52.1 ± 30.2 | 31.4 ± 15.6 | – | – | –
21 | O=C(CC1CCN(CCc2ccccc2Cl)CC1)Nc1ccc2[nH]ccc2c1 [Compound 16b, 2-(1-(2-Chlorophenethyl)piperidin-4-yl)-N-(1H-indol-5-yl)acetamide] | – | – | – | 8.95% | 31.21 | –
22 | COc1ccc(CN2CCC(CNC(=O)c3ccc4c(c3)CC(=O)N4)CC2)cc1 [Compound 8k, N-((1-(4-Methoxybenzyl)piperidin-4-yl)methyl)-2-Oxoindoline-5-carboxamide] | – | – | – | no | 22.26 | –
23 | O=C1Cc2cc(C(=O)NCC3CCN(Cc4ccc(C(F)(F)F)cc4)CC3)ccc2N1 [Compound 8l, 2-Oxo-N-((1-(4-(trifluoromethyl)benzyl)piperidin-4-yl)methyl)indoline-5-carboxamide] | – | 21.5 ± 9.37 | – | – | 35.20 | –
